Results taken from DBAASP.
In brackets after ≈: the same amount, converted by molar mass.

Legend:
Test in all cases: ≥ marks a high value that may be exact or a test limit, other limits are often not marked, values filed in µg/mL are converted to µM
[1] = tested on: Bacillus subtilis KCTC 3068
[2] = tested on: Enterococcus faecalis VR
[3] = tested on: Enterococcus faecalis
[4] = tested on: Enterococcus faecium VR
[5] = tested on: Enterococcus faecium
[6] = tested on: Escherichia coli KCTC 1682
[7] = tested on: Pseudomonas aeruginosa KCTC 1637
[8] = tested on: Salmonella typhimurium KCTC 1926
[9] = tested on: Staphylococcus aureus KCTC 1621
[10] = tested on: Staphylococcus aureus MR
[11] = tested on: Staphylococcus epidermidis KCTC 1917
[12] = tested on: Bacillus subtilis ATCC 6633
[13] = tested on: Candida albicans ATCC 10231
[14] = tested on: Candida parapsilosis ATCC 22019
[15] = tested on: Cryptococcus neoformans
[16] = tested on: Escherichia coli ATCC 9637
[17] = tested on: Klebsiella pneumoniae ATCC 27736
[18] = tested on: Pseudomonas aeruginosa ATCC BAA-427
[19] = tested on: Sporothrix schenckii
[20] = tested on: Staphylococcus aureus ATCC 25923
[21] = tested on: Staphylococcus aureus ATCC 29213
[22] = tested on: Staphylococcus aureus ATCC 33592
[23] = tested on: Staphylococcus aureus ATCC 700698
[24] = tested on: Staphylococcus aureus ATCC 700699
[25] = tested on: Staphylococcus aureus ATCC BAA-44
[26] = tested on: Escherichia coli ATCC 25922
[27] = tested on: Klebsiella pneumoniae ATCC 13883
[28] = tested on: Pseudomonas aeruginosa PAO1
[29] = tested on: Staphylococcus aureus USA 300 LAC
[30] = tested on: Staphylococcus aureus USA 300
[31] = tested on: Salmonella typhimurium CMCC 50013
[32] = tested on: Acinetobacter baumannii ATCC 19606
[33] = tested on: Aspergillus niger ATCC 16404
[34] = tested on: Candida glabrata ATCC 15126
[35] = tested on: Enterococcus faecalis PCM 2673
[36] = tested on: Escherichia coli ATCC 23506
[37] = tested on: Klebsiella pneumoniae ATCC 700603
[38] = tested on: Pseudomonas aeruginosa ATCC 9027
[39] = tested on: Staphylococcus aureus ATCC 9144
[40] = tested on: Streptococcus pneumoniae ATCC 49619
[41] = tested on: Bacillus subtilis ATCC 6051
[42] = tested on: Pseudomonas aeruginosa ATCC 27853
[43] = tested on: Vibrio anguillarum ATCC 43305
[44] = tested on: Bacillus cereus C737
[45] = tested on: Escherichia coli UB1005

CC(C)C[C@H](NC(=O)[C@H](CO)NC(=O)[C@H](CC(C)C)NC(=O)[C@H](CS)NC(=O)[C@H](CC(N)=O)NC(=O)[C@H](C)NC(=O)[C@H](C)N)C(=O)NCC(=O)N[C@@H](CCCCN)C(=O)N[C@@H](C)C(N)=O [AANCLSLGKA]
MIC [1]: 30 µM (≈ 28.4 µg/mL)
MIC [2]: 30 µM (≈ 28.4 µg/mL)
MIC [3]: 30 µM (≈ 28.4 µg/mL)
MIC [4]: 30 µM (≈ 28.4 µg/mL)
MIC [5]: 30 µM (≈ 28.4 µg/mL)
MIC [6]: 30 µM (≈ 28.4 µg/mL)
MIC [7]: 30 µM (≈ 28.4 µg/mL)
MIC [8]: 30 µM (≈ 28.4 µg/mL)
MIC [9]: 30 µM (≈ 28.4 µg/mL)
MIC [10]: 30 µM (≈ 28.4 µg/mL)
MIC [11]: 30 µM (≈ 28.4 µg/mL)

CC[C@H](C)[C@H](NC(=O)[C@H](C)NC(=O)[C@H](CCCCN)NC(=O)CNC(=O)[C@H](C)NC(=O)[C@H](Cc1cnc[nH]1)NC(=O)[C@@H](NC(=O)[C@H](C)NC(=O)[C@@H]1CCCN1C(=O)[C@H](CCCCN)NC(=O)[C@@H](NC(=O)[C@H](CC(C)C)NC(=O)[C@H](Cc1c[nH]c2ccccc12)NC(=O)CNC(=O)[C@H](Cc1ccccc1)NC(=O)[C@@H](N)Cc1ccccc1)[C@@H](C)CC)[C@@H](C)CC)C(=O)N[C@@H](Cc1cnc[nH]1)C(=O)NCC(=O)N[C@@H](CC(C)C)C(=O)N[C@H](C(=O)N[C@@H](Cc1cnc[nH]1)C(=O)N[C@@H](CCCN=C(N)N)C(=O)N[C@@H](CCCN=C(N)N)C(=O)N[C@@H](CCCN=C(N)N)C(=O)N[C@@H](Cc1cnc[nH]1)C(=O)O)[C@@H](C)CC [FFGWLIKPAIHAGKAIHGLIHRRRH]
MIC [12]: 3 µM (≈ 8.8 µg/mL)
MIC [13]: 3 µM (≈ 8.8 µg/mL)
MIC [14]: 6.8 µM (≈ 19.9 µg/mL)
MIC [15]: 6.8 µM (≈ 19.9 µg/mL)
MIC [16]: 3.3 µM (≈ 9.68 µg/mL)
MIC [17]: 3.3 µM (≈ 9.68 µg/mL)
MIC [18]: 6.8 µM (≈ 19.9 µg/mL)
MIC [19]: 13.6 µM (≈ 39.9 µg/mL)
MIC [20]: 3 µM (≈ 8.8 µg/mL)
MIC [21]: 1.6 µM (≈ 4.69 µg/mL)
MIC [22]: 0.8 µM (≈ 2.35 µg/mL)
MIC [23]: 1.6 µM (≈ 4.69 µg/mL)
MIC [24]: 1.6 µM (≈ 4.69 µg/mL)
MIC [25]: 1.6 µM (≈ 4.69 µg/mL)

CC[C@H](C)[C@H](NC(=O)[C@H](CCCN=C(N)N)NC(=O)[C@H](CCCN=C(N)N)NC(=O)[C@H](CC(C)C)NC(=O)[C@H](Cc1c[nH]c2ccccc12)NC(=O)[C@H](CCCN=C(N)N)NC(=O)[C@@H](N)Cc1c[nH]c2ccccc12)C(=O)N[C@@H](Cc1c[nH]c2ccccc12)C(N)=O [WRWLRRIW]
MIC [26]: 25 µM (≈ 31.8 µg/mL)
MIC [27]: 25 µM (≈ 31.8 µg/mL)
MIC [28]: 6.2 µM (≈ 7.88 µg/mL)
MIC [29]: 6.2 µM (≈ 7.88 µg/mL)
MIC [30]: 6.2 µM (≈ 7.88 µg/mL)

NCCCC[C@H](NC(=O)[C@H](CCCN=C(N)N)NC(=O)CNC(=O)[C@@H](N)Cc1ccc(O)cc1)C(=O)N[C@@H](CCCCN)C(=O)N[C@@H](CCCN=C(N)N)C(=O)N[C@@H](CCCN=C(N)N)C(=O)N[C@@H](CCC(N)=O)C(=O)N[C@@H](CCCN=C(N)N)C(=O)N[C@@H](CCCN=C(N)N)C(=O)N[C@@H](CCCN=C(N)N)C(=O)O [YGRKKRRQRRR]
MIC [1]: 26.4 µM (≈ 41.2 µg/mL)
MIC [26]: 15.5 µM (≈ 24.1 µg/mL)
MIC [31]: 29 µM (≈ 45.2 µg/mL)
MIC [21]: 16.6 µM (≈ 25.9 µg/mL)

CC[C@H](C)[C@H](NC(=O)[C@H](CC(C)C)NC(=O)[C@H](CCCN=C(N)N)NC(=O)[C@H](Cc1c[nH]c2ccccc12)NC(=O)[C@@H]1CCCN1C(=O)[C@H](Cc1c[nH]c2ccccc12)NC(=O)[C@H](Cc1c[nH]c2ccccc12)NC(=O)[C@@H]1CCCN1C(=O)[C@H](Cc1c[nH]c2ccccc12)NC(=O)[C@H](CCCN=C(N)N)NC(=O)[C@H](CCCN=C(N)N)NC(=O)[C@@H](N)CCCCN)C(N)=O [KRRWPWWPWRLI]
MIC [32]: 8.99 µM (≈ 16 µg/mL)
MIC [33]: ≥ 36 µM
MIC [13]: 18 µM (≈ 32 µg/mL)
MIC [34]: ≥ 36 µM
MIC [35]: 8.99 µM (≈ 16 µg/mL)
MIC [36]: 2.25 µM (≈ 4 µg/mL)
MIC [26]: 4.49 µM (≈ 8 µg/mL)
MIC [37]: 2.25 µM (≈ 4 µg/mL)
MIC [38]: 2.25 µM (≈ 4 µg/mL)
MIC [20]: 4.49 µM (≈ 8 µg/mL)
MIC [39]: 4.49 µM (≈ 8 µg/mL)
MIC [40]: 4.49 µM (≈ 8 µg/mL)

CC(C)C[C@H](N)C(=O)N[C@@H](CCCN=C(N)N)C(=O)N[C@@H](Cc1c[nH]c2ccccc12)C(=O)N[C@H](C(=O)N1CCC[C@H]1C(=O)N[C@H](C(=O)N1CCC[C@H]1C(=O)N[C@@H](CO)C(=O)N[C@@H](Cc1ccc(O)cc1)C(=O)N1CCC[C@H]1C(=O)N[C@@H](CCCN=C(N)N)C(=O)N[C@@H](Cc1ccc(O)cc1)C(=O)N1CCC[C@H]1C(=O)N[C@H](C(=O)N[C@@H](CCCN=C(N)N)C(=O)N[C@@H](CO)C(=O)N[C@@H](CCCN=C(N)N)C(=O)NCC(=O)N[C@@H](CO)C(=O)N[C@@H](CCCN=C(N)N)C(=O)N[C@@H](Cc1c[nH]c2ccccc12)C(=O)N[C@@H](CO)C(=O)N[C@@H](CCCN=C(N)N)C(N)=O)[C@@H](C)O)[C@@H](C)O)[C@@H](C)O [LRWTPTPSYPRYPTRSRGSRWSR]
MIC [32]: 8 µM (≈ 22.9 µg/mL)
MIC [41]: ≥ 32 µM
MIC [26]: 11.3 µM (≈ 32.4 µg/mL)
MIC [42]: > 32 µM
MIC [20]: > 32 µM
MIC [43]: ≥ 32 µM

CC[C@H](C)[C@H](NC(=O)[C@H](CC(=O)O)NC(=O)[C@H](Cc1ccccc1)NC(=O)[C@H](CC(C)C)NC(=O)CN)C(=O)N[C@H](C(=O)N[C@@H](CCCCN)C(=O)N[C@@H](CCCCN)C(=O)N[C@H](C(=O)N[C@H](C(=O)NCC(=O)N[C@@H](C)C(=O)N[C@H](C(=O)NCC(=O)N[C@@H](CO)C(=O)N[C@@H](CC(C)C)C(N)=O)C(C)C)C(C)C)C(C)C)C(C)C [GLFDIVKKVVGAVGSL]
MIC [44]: ≥ 79.9 µM
MIC [45]: ≥ 40 µM
MIC [28]: > 79.9 µM
